Laboratory results published in patent US20090143285A1, “TARGET PROTEIN AND TARGET GENE FOR DRUG DISCOVERY AND SCREENING METHOD” (REVERSE PROTEOMICS RESEARCH INSTITUTE CO., LTD., priority 2005, published 2009).
Where a chain is given by its changes, count along the chain named. “Also recorded” adds a separate entry of the source. Like-named read-outs stand apart in the source and are kept apart here.

Legend:
FLJ38897-derived protein = target: T1, FLJ38897-derived protein (Homo sapiens, UniProt P57764); test: SEC/MS interaction analysis, FLJ38897-derived protein (GSDMDC1); format: binding; conditions: spin column method; mixture with protein vs buffer solution alone; data not shown
T1 construct: His-tag (N); made in house; host or cells: Escherichia coli BL21star(DE3)pLysS
T1 sequence (P57764 265-484): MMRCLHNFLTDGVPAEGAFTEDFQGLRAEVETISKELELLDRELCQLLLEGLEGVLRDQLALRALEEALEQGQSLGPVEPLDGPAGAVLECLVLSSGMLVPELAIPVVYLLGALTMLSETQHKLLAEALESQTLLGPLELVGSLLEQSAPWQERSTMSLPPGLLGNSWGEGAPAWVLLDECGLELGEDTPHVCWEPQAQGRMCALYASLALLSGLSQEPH
Text: (§1) To analyze the interactions between commonly used drugs and proteins expressed from human full-length cDNA clones while keeping both the proteins and the compounds in non-modified, non-immobilized state, size exclusion chromatography (SEC) and mass analysis were used in combination. The specific procedures are shown below.
(§2) The compound-protein mixture prepared in step 1 was subjected to chromatography using an SEC column, the compound and the protein were separated by SEC, and the compound that interacted with the bound compound or protein contained in the protein fraction was analyzed using a mass analyzer.
(§3) Protein concentrations were measured using BCA Protein Assay (PIERCE), in consideration of the purity calculated by SDS-PAGE.
(§4) Mass analysis was performed using LCQ DECA XP (Thermoelectron) or Q-TOF micro (Micromass), equipped with an ESI probe. The LC pump used was Agilent 1100 (Yokogawa Analytical Systems), and the autosampler used was HTC-PAL (CTC Analytics) equipped with a cooling stacker. The SEC column used was a micro-LC column or a 384-well spin column. […]
(§5) In the 384-well spin column method, Unifilter 100 (Whatman), packed with 10 μL (dry volume) of Bio-Gel P6 (BIO-RAD) and swollen with milliQ water, was used as the SEC column. […] The SEC spin column was mounted on an acetonitrile-aliquoted 384-well U-bottom plate and centrifuged; the SEC spin column filtrate, which is a protein fraction, was recovered in 50% acetonitrile. The protein precipitate produced by the acetonitrile was removed via centrifugation and filtration for deproteinization; the resulting filtrate was concentrated by centrifugal concentration and re-dissolved in 10 μL of 50% methanol to obtain a mass analysis sample. The mobile phase supplied to the mass analyzer was 0.1% formic acid/50% methanol solution in the positive ion mode, and 0.1% ammonia/50% methanol solution in the negative ion mode; these mobile phases were used at a flow rate of 40 μL/min. 2-μL of mass analysis samples were injected using an autosampler at 2-minute intervals; the mass spectral intensity of the compound was measured to retrieve the spectral intensity of the pharmaceutical compound contained in the SEC spin column filtrate (protein fraction eluted from SEC).

[1] = tested on: FLJXXXXX-derived proteins; test: SEC/MS spin column interaction analysis of FLJXXXXX-derived proteins and various compounds (Tables 30-1 to 30-4); format: binding, human
FLJ41991-derived protein = target: T2, FLJ41991-derived protein (Homo sapiens, UniProt P57764, E293G); test: SEC/MS interaction analysis, FLJ41991-derived protein (GSDMDC1); format: binding; conditions: for interaction judged from spectrum intensity of the compound in the SEC spin column filtrate (protein fraction eluted from SEC): spin column method, doses of both compound and protein varied
T2 construct: His-tag (N); made in house; host or cells: Escherichia coli BL21star(DE3)pLysS (pDEST17)
T2 sequence (P57764 265-484 E293G): T1 sequence (P57764 265-484) with E29G
Text: as §1, §2, §3, §4, §5

[2] = SEC spin column filtrate, spectral intensity increased with doses of compound and protein
[3] = compound 12.5 μM, protein 10 μM
[4] = compound 12.5 μM, protein 25 μM
[5] = compound 62.5 μM, protein 10 μM
[6] = compound 62.5 μM, protein 25 μM

Row | SMILES | interaction judged from mass spectrum peak intensity of the compound in the spin column filtrate (FLJ38897-derived protein) | spectrum intensity of the compound in the SEC spin column filtrate (FLJ41991-derived protein; compound 12.5 μM, protein 0 μM) | spectrum intensity of the compound in the SEC spin column filtrate (FLJ41991-derived protein; compound 12.5 μM, protein 5 μM) | spectrum intensity of the compound in the SEC spin column filtrate (FLJ41991-derived protein; [3]) | spectrum intensity of the compound in the SEC spin column filtrate (FLJ41991-derived protein; [4]) | spectrum intensity of the compound in the SEC spin column filtrate (FLJ41991-derived protein; compound 25 μM, protein 0 μM) | spectrum intensity of the compound in the SEC spin column filtrate (FLJ41991-derived protein; compound 25 μM, protein 5 μM) | spectrum intensity of the compound in the SEC spin column filtrate (FLJ41991-derived protein; compound 25 μM, protein 10 μM) | spectrum intensity of the compound in the SEC spin column filtrate (FLJ41991-derived protein; compound 25 μM, protein 25 μM) | spectrum intensity of the compound in the SEC spin column filtrate (FLJ41991-derived protein; compound 62.5 μM, protein 0 μM) | spectrum intensity of the compound in the SEC spin column filtrate (FLJ41991-derived protein; compound 62.5 μM, protein 5 μM) | spectrum intensity of the compound in the SEC spin column filtrate (FLJ41991-derived protein; [5]) | spectrum intensity of the compound in the SEC spin column filtrate (FLJ41991-derived protein; [6]) | interaction judged from spectrum intensity of the compound in the SEC spin column filtrate (protein fraction eluted from SEC) (FLJ41991-derived protein) | FLJ No of the derived protein with which the compound was judged to exhibit a concentration-dependent interaction [1, 2] | FLJ No of the derived protein with which the compound was judged to exhibit a concentration-dependent interaction [1]
1 | CN1[C@@H]2CC[C@H]1C[C@@H](OC(c1ccccc1)c1ccccc1)C2 [benztropine] | there was an interaction | 143943 | 220928 | 285013 | 489071 | 152947 | 491863 | 560686 | 1352077 | 911727 | 1861766 | 2757526 | 3061987 | concentration-dependent interaction | FLJ38897; also recorded: FLJ41991 | –
2 | CN(C)C(=O)C(CCN1CCC(O)(c2ccc(Cl)cc2)CC1)(c1ccccc1)c1ccccc1 [loperamide] | there was an interaction | 75412 | 200285 | 950587 | 1688197 | 263744 | 863800 | 1856141 | 4462655 | 1579322 | 3520629 | 6073080 | 9496680 | concentration-dependent interaction | – | FLJ41991; also recorded: FLJ38897
3 | OC(c1cc(C(F)(F)F)nc2c(C(F)(F)F)cccc12)C1CCCCN1 (centres unmarked) [mefloquine] | there was an interaction | 16334 | 46239 | 101775 | 453818 | 27931 | 100287 | 273106 | 1788847 | 97153 | 528117 | 2017157 | 4385022 | concentration-dependent interaction | FLJ37909; also recorded: FLJ38897; also recorded: FLJ41991 | –
4 | OCCN1CCN(CCCN2c3ccccc3Sc3ccc(Cl)cc32)CC1 [perphenazine] | there was an interaction | 23424 | 43607 | 83672 | 314285 | 38186 | 71806 | 229107 | 799962 | 35061 | 208220 | 695158 | 2872912 | concentration-dependent interaction | FLJ38897; also recorded: FLJ41991 | –

The next lines start with results.

Row | interaction judged from mass spectrum peak intensity of the compound in the spin column filtrate (FLJ38897-derived protein) | spectrum intensity of the compound in the SEC spin column filtrate (FLJ41991-derived protein; compound 12.5 μM, protein 0 μM) | spectrum intensity of the compound in the SEC spin column filtrate (FLJ41991-derived protein; compound 12.5 μM, protein 5 μM) | spectrum intensity of the compound in the SEC spin column filtrate (FLJ41991-derived protein; [3]) | spectrum intensity of the compound in the SEC spin column filtrate (FLJ41991-derived protein; [4]) | spectrum intensity of the compound in the SEC spin column filtrate (FLJ41991-derived protein; compound 25 μM, protein 0 μM) | spectrum intensity of the compound in the SEC spin column filtrate (FLJ41991-derived protein; compound 25 μM, protein 5 μM) | spectrum intensity of the compound in the SEC spin column filtrate (FLJ41991-derived protein; compound 25 μM, protein 10 μM) | spectrum intensity of the compound in the SEC spin column filtrate (FLJ41991-derived protein; compound 25 μM, protein 25 μM) | spectrum intensity of the compound in the SEC spin column filtrate (FLJ41991-derived protein; compound 62.5 μM, protein 0 μM) | spectrum intensity of the compound in the SEC spin column filtrate (FLJ41991-derived protein; compound 62.5 μM, protein 5 μM) | spectrum intensity of the compound in the SEC spin column filtrate (FLJ41991-derived protein; [5]) | spectrum intensity of the compound in the SEC spin column filtrate (FLJ41991-derived protein; [6]) | interaction judged from spectrum intensity of the compound in the SEC spin column filtrate (protein fraction eluted from SEC) (FLJ41991-derived protein) | SMILES | FLJ No of the derived protein with which the compound was judged to exhibit a concentration-dependent interaction [1, 2] | FLJ No of the derived protein with which the compound was judged to exhibit a concentration-dependent interaction [1]
5 | there was an interaction | 178622 | 175333 | 226245 | 393132 | 161141 | 149738 | 277798 | 490640 | 156021 | 210998 | 626223 | 2564975 | concentration-dependent interaction | CN(C)CC/C=C1/c2ccccc2Sc2ccc(Cl)cc21 [chlorprothixene] | FLJ38897; also recorded: FLJ41991 | –
6 | there was an interaction | 87861 | 162795 | 434899 | 1101486 | 193639 | 276524 | 843648 | 1778376 | 200313 | 1055670 | 3173659 | 6405132 | concentration-dependent interaction | OCCN1CCN(CCCN2c3ccccc3Sc3ccc(C(F)(F)F)cc32)CC1 [fluphenazine] | FLJ38897; also recorded: FLJ41991 | –
7 | there was an interaction | 19251 | 32265 | 67187 | – | 37961 | 52442 | 119306 | 1312562 | 58164 | 153267 | 1091123 | 3195671 | concentration-dependent interaction | O=C(c1ccc(OCCN2CCCCC2)cc1)c1c(-c2ccc(O)cc2)sc2cc(O)ccc12 [raloxifene] | FLJ37909; also recorded: FLJ38897; also recorded: FLJ41991 | –
